Reference: US20050159599A1, “Cyclic compound, process for producing the same, and pest control agent” (priority 2002, published 2005)

What was measured:
Spodoptera litura [1] = experiment: Insecticidal effect for Spodoptera litura by spraying treatment to host crop (Test Example 2); type: in vivo; details: 100 ppm, sprayed on soybean, third-instar larvae of Spodoptera litura, fifth day after; for pest or weed control at 100 ppm: 120 h, read-out: rate of dead pests (%)
Procedure: Insecticidal Effect for Spodoptera litura by Spraying Treatment to Host Crop
A pesticidal solution, which was prepared by dissolving 5 mg of test compound (represented by the compound Nos. in the above Examples) in 0.5-ml of acetone containing Tween 20 (trade name) and then diluting it to the prescribed concentration (100 ppm) with Dain (trade name, sticker) water diluted 5000-fold, was sprayed on a soybean whose primary leaves had developed completely with spray gun in the amounts wherein the pesticidal solution dripped. After drying the pesticidal solution, two primary leaves were cut off. The leaves were put into an ice cream cup (180 ml), and ten third-instar larvae of Spodoptera litura were set free therein. The cup was left in a temperature-controlled breeding room (25° C.). On the fifth day after, the number of surviving Spodoptera litura was examined. The rate of dead pests was calculated by the following formula. rate of dead pests (%)=(number of dead pests/number of test pests)×100

Spodoptera litura [2] = experiment: Insecticidal effect for Spodoptera litura by immersion treatment of host crop root (Test Example 4); type: in vivo; details: soybean root immersion 5 days, second-instar larvae of Spodoptera litura, fifth day after; for pest or weed control at 25 ppm: 120 h, read-out: rate of dead pests (%)
Procedure: Insecticidal Effect for Spodoptera litura by Immersion Treatment of Host Crop Root Roots of primary leaves developing stage soybean was washed with tap water to remove soil, and then immersed in a pesticidal solution which was prepared by dissolving 5 mg of test compound (represented by the compound Nos. in the above Examples) in 0.5 ml of acetone containing Tween 20 ([…]) with ion-exchange water, and which was filled in a light-shielded Erlenmeyer flask (100 ml). On the fifth day after immersion of root, two primary leaves were cut off, and the leaves were put into an ice cream cup (180 ml). Ten second-instar larvae of Spodoptera litura were set free therein, and the cup was left in a temperature-controlled breeding room (25° C.). On the fifth day after, the number of surviving Spodoptera litura was examined. The rate of dead pests was calculated by the following formula. rate of dead pests (%)=(number of dead pests/number of test pests)×100

| Structure (SMILES) | rate of dead pests (%) (Spodoptera litura [1]) | rate of dead pests (%) (Spodoptera litura [2]; 25 ppm) | also measured |
| --- | --- | --- | --- |
| O=C(c1c(F)cccc1F)N1COCN(c2ccc(Cl)cc2)C1=O [I-1, 3-(4-chlorophenyl)-5-(2,6-difluorobenzoyl)tetrahydro-4H-1,3,5-oxadiazin-4-one] | – | – | pest or weed control at 100 ppm (Spodoptera litura [1]): 100%; pest or weed control at 25 ppm (Spodoptera litura [2]; 25 ppm): 100% |
| C[S+]([O-])c1cc(F)c(N2COCN(C(=O)c3c(F)cccc3F)C2=O)c(F)c1 (centres unmarked) [I-32] | 100 | 90 | – |
| O=C(c1c(F)cccc1F)N1COCN(c2ccc(SCC=C(Cl)Cl)cc2F)C1=O [I-37] | 100 | 100 | – |
| O=C(c1c(F)cccc1F)N1COCN(CC(F)(F)F)C1=O [I-40] | 100 | 100 | – |
| CCSc1ccc(N2COCN(C(=O)c3c(F)cccc3F)C2=O)c(F)c1 [I-47] | 100 | 100 | – |
| CC[S+]([O-])c1ccc(N2COCN(C(=O)c3c(F)cccc3F)C2=O)c(F)c1 (centres unmarked) [I-48] | – | 100 | – |
| CCCSc1ccc(N2COCN(C(=O)c3c(F)cccc3F)C2=O)c(F)c1 [I-50] | – | 100 | – |
| CC(C)Sc1ccc(N2COCN(C(=O)c3c(F)cccc3F)C2=O)c(F)c1 [I-53] | 100 | 100 | – |
| C=CCSc1ccc(N2COCN(C(=O)c3c(F)cccc3F)C2=O)c(F)c1 [I-59] | 100 | 100 | – |
| C#CCSc1ccc(N2COCN(C(=O)c3c(F)cccc3F)C2=O)c(F)c1 [I-62] | 100 | – | rate of dead pests (%) (Spodoptera litura [2]; 5 ppm (so in the source)): 100% |
| O=C(c1c(F)cccc1F)N1COCN(c2ccc(SC(F)(F)F)cc2Cl)C1=O [I-74] | 100 | 100 | – |
| O=C(c1c(F)cccc1F)N1COCN(c2ccc([S+]([O-])C(F)(F)F)c(Cl)c2Cl)C1=O (centres unmarked) [I-93] | 100 | 100 | – |
| O=C(c1c(F)cccc1F)N1COCN(c2cc(Cl)c(SC(F)(F)F)cc2F)C1=O [I-98] | 100 | 95 | – |
| O=C(c1c(F)cccc1F)N1COCN(c2c(F)cc(SC(F)(F)F)cc2Cl)C1=O [I-101] | 100 | 100 | – |
| O=C(c1c(F)cccc1F)N1COCN(c2c(F)cc(SC(F)(F)F)cc2F)C1=O [I-104] | 100 | 100 | – |
| Cc1c(N2COCN(C(=O)c3c(F)cccc3F)C2=O)ccc(SC(F)(F)F)c1Cl [I-122] | 100 | 95 | – |
| O=C(c1c(F)cccc1F)N1COCN(c2ccc(SC(F)(F)C(F)(F)F)cc2F)C1=O [I-128, 3-(2,6-difluorobenzoyl)-5-[2-fluoro-4-(1,1,2,2,2-pentafluoroethylthio)phenyl]tetrahydro-4H-1,3,5-oxadiazin-4-one] | – | – | pest or weed control at 100 ppm (Spodoptera litura [1]): 100%; pest or weed control at 25 ppm (Spodoptera litura [2]; 25 ppm): 100% |
| O=C(c1c(F)cccc1Cl)N1COCN(c2ccc([S+]([O-])C(F)F)cc2F)C1=O (centres unmarked) [I-219] | 100 | 100 | – |
| O=C(c1c(F)cccc1Cl)N1COCN(c2ccc(SC(F)(F)F)cc2Cl)C1=O [I-251] | – | 90 | – |
| O=C(c1c(F)cccc1Cl)N1COCN(c2ccc([S+]([O-])C(F)(F)F)cc2Cl)C1=O (centres unmarked) [I-252] | 100 | 100 | – |
| O=C(c1c(F)cccc1Cl)N1COCN(c2ccc([S+]([O-])C(F)(F)F)c(Cl)c2)C1=O (centres unmarked) [I-255] | 100 | 100 | – |
| O=C(c1c(F)cccc1Cl)N1COCN(c2cc(Cl)c(SC(F)(F)F)cc2F)C1=O [I-275] | 100 | 100 | – |

| Structure (SMILES) | rate of dead pests (%) (Spodoptera litura [1]) | rate of dead pests (%) (Spodoptera litura [2]; 25 ppm) | also measured |
| --- | --- | --- | --- |
| O=C(c1c(F)cccc1Cl)N1COCN(c2c(F)cc(SC(F)(F)F)cc2Cl)C1=O [I-278] | 100 | 90 | – |
| O=C(c1c(F)cccc1Cl)N1COCN(c2c(F)cc(SC(F)(F)F)cc2F)C1=O [I-281] | 100 | 100 | – |
| O=C(c1c(Cl)cccc1Cl)N1COCN(c2ccc([S+]([O-])C(F)F)cc2F)C1=O (centres unmarked) [I-396] | – | 100 | – |
| O=C(c1c(F)cccc1F)N1CSCN(CC(F)(F)F)C1=O [II-64] | – | 95 | – |
| CC(=O)N1CN(C(=O)c2c(F)cccc2F)C(=O)N(c2ccc(Cl)cc2)C1 [III-9, 5-acetyl-1-(4-chlorophenyl)-3-(2,6-difluorobenzoyl)tetrahydro-1,3,5-triazin-2(1H)-one] | – | – | pest or weed control at 25 ppm (Spodoptera litura [2]; 25 ppm): 95% |
| COC(=O)C(=O)N1CN(C(=O)c2c(F)cccc2F)C(=O)N(c2ccc(Cl)cc2)C1 [III-15] | – | 95 | – |
| O=C(c1c(F)cccc1F)N1CN(c2ccccc2)CN(c2ccc(Oc3ccc(C(F)(F)F)cc3Cl)cc2F)C1=O [III-30] | 100 | – | – |
| O=C(c1c(F)cccc1F)N1CN(C(=O)C(F)(F)F)CN(c2ccc(Oc3ccc(C(F)(F)F)cc3Cl)cc2F)C1=O [III-32] | 100 | – | – |
| O=C(c1c(F)cccc1F)N1CN(C2CC2)CN(c2ccc(Oc3ccc(C(F)(F)F)cc3Cl)cc2F)C1=O [III-36] | 100 | – | – |
| CN1CN(C(=O)c2c(F)cccc2F)C(=O)N(c2cc(Cl)c(F)c(Cl)c2F)C1 [III-51] | 100 | – | – |
| CC(C)N1CN(C(=O)c2c(F)cccc2F)C(=O)N(c2cc(Cl)c(F)c(Cl)c2F)C1 [III-52] | 100 | – | – |
| O=C(c1c(F)cccc1F)N1CN(C2CC2)CN(c2cc(Cl)c(F)c(Cl)c2F)C1=O [III-53] | 100 | – | – |
| CN1CN(C(=O)c2c(F)cccc2F)C(=O)N(c2cc(Cl)c(OC(F)(F)C(F)C(F)(F)F)cc2Cl)C1 (centres unmarked) [III-69] | 100 | – | – |
| CN1CN(C(=O)c2c(F)cccc2F)C(=O)N(c2ccc(SC(F)(F)C(F)Cl)cc2F)C1 (centres unmarked) [III-76] | 100 | – | – |
| CN1CN(CC(F)(F)F)C(=O)N(C(=O)c2c(F)cccc2F)C1 [III-144] | – | 100 | – |
| CS(=O)(=O)N1CN(C(=O)c2c(F)cccc2F)C(=O)N(c2ccc(SC(F)F)cc2F)C1 [III-150] | 100 | – | – |
| CC(=O)N1CN(C(=O)c2c(F)cccc2F)C(=O)N(c2ccc(SC(F)(F)F)cc2F)C1 [III-161, 1-(2,6-difluorobenzoyl)-3-[2-fluoro-4-(trifluoromethylthio)phenyl]-5-aceyltetrahydro-1,3,5-triazin-2(1H)-one] | 100 | – | – |
| CS(=O)(=O)N1CN(C(=O)c2c(F)cccc2F)C(=O)N(c2ccc(SC(F)(F)F)cc2F)C1 [III-162, 1-(2,6-difluorobenzoyl)-3-[2-fluoro-4-(trifluoromethylthio)phenyl]-5-methylsulfonyltetrahydro-1,3,5-triazin-2(1H)-one] | – | – | pest or weed control at 100 ppm (Spodoptera litura [1]): 100% |
| CC(=O)N1CN(C(=O)c2c(F)cccc2F)C(=O)N(c2ccc([S+]([O-])C(F)(F)F)cc2F)C1 (centres unmarked) [III-165] | 100 | – | – |
| CS(=O)(=O)N1CN(C(=O)c2c(F)cccc2F)C(=O)N(c2ccc([S+]([O-])C(F)(F)F)cc2F)C1 (centres unmarked) [III-166] | 100 | – | – |
| Cc1cc(SC(F)(F)F)ccc1N1CN(C)CN(C(=O)c2c(F)cccc2Cl)C1=O [III-455] | 100 | – | – |
| O=C(c1c(F)cccc1F)N1C=NCN(c2cc(Cl)c(F)c(Cl)c2F)C1=O [IV-4, 3-(3,5-dichloro-2,4-difluorophenyl)-1-(2,6-difluorobenzoyl)-3,4-dihydro-1,3,5-triazin-2(1H)-one] | – | – | pest or weed control at 25 ppm (Spodoptera litura [2]; 25 ppm): 100% |
